# In publication PMC11847391, “Synthesis and biological activities of 3-aminoimidazo[1,2-α]pyridine compounds” (BMC Chemistry, 2025):
# What was measured:
# [1] = system: HT-29 human colorectal adenocarcinoma cell line; assay: Cytotoxicity, Trypan blue exclusion test, HT-29; format: cell-based; settings: for IC50: HT-29, 24 h, Trypan blue exclusion, mean ± SD of two independent experiments
# Method: (§1) The synthesized compounds were assessed for their cytotoxic effects on three different cancer cell lines: the MCF-7 human breast cancer cell line (ATCC number: HTB-22), the HT-29 human colorectal adenocarcinoma cell line [HTB-38; American Type Culture Collection (ATCC), Manassas, VA, USA], and the B16F10 murine melanoma cancer cell line [CRL-6475; American Type Culture Collection (ATCC), Manassas, VA, USA], as well as the normal cell line mouse Embryonic Fibroblast-1 cell line (MEF-1; ATCC CRL-2214). The cell line was cultivated in high-glucose Dulbecco’s Modified Eagle Medium (DMEM) that is supplemented with L-glutamine, phenol red (Fuji Film Wako, Osaka, Japan), 10% fetal bovine serum (FBS; G.E. Healthcare, Chicago, IL, USA), and 1% penicillin/streptomycin (P/S) (Nacalai Tesque, Kyoto, Japan). Exponentially growing cells (1 × 10^5 cells/well) were seeded in a 24-well plate with sterile-filtered DMEM medium at 37 °C under 5% CO2 and incubated overnight. The cells were then treated with different concentrations of test compounds (5, 10, 50, and 100 µg/mL) and incubated for 24 h in a humidified atmosphere. After 24 h of incubation, viable cells were counted in each well using the Trypan blue exclusion test. All compounds were initially dissolved in DMSO, and the final concentration of DMSO was less than 1% in all of the considered concentrations of the applied compounds. The IC50 values from at least two independent experiments were compared with the control and expressed as the mean ± SD. The analysis of two groups was performed using the student t-test, and P-values < 0.05 were statistically significant.
# [2] = system: B16F10 murine melanoma cancer cell line; assay: Cytotoxicity, Trypan blue exclusion test, B16F10; format: cell-based; settings: for IC50: B16F10, 24 h, Trypan blue exclusion, mean ± SD of two independent experiments
# Method: as §1
# [3] = system: mouse Embryonic Fibroblast-1 cell line (MEF-1); assay: Cytotoxicity, Trypan blue exclusion test, normal MEF cells; format: cell-based; settings: for IC50: normal cell line MEF, 24 h, Trypan blue exclusion, mean ± SD of two independent experiments
# Method: as §1
# [4] = system: MCF-7 human breast cancer cell line; assay: Cytotoxicity, Trypan blue exclusion test, MCF-7; format: cell-based; settings: for IC50: MCF-7, 24 h, Trypan blue exclusion, mean ± SD of two independent experiments
# Method: as §1
# [5] = system: B16F10 cell line; assay: Morphological changes of treated B16F10 cells; format: cell-based, murine; settings: high concentrations (≥ 50 µg/ml), versus untreated cancer cells
# Source text: (§2) In comparison to the control (untreated cancer cells), the three cancer cell lines (MCF-7, HT-29, and B16F10) were investigated for morphological changes after being treated with the synthesized compounds 9–19.
# [6] = system: HT-29 cell line; assay: Morphological changes of treated HT-29 cells; format: cell-based, human; settings: high concentrations (≥ 50 µg/ml), versus untreated cancer cells
# Source text: as §2
SMILES,IC50 [1],IC50 [2],IC50 [3],IC50 [4],"IC50 ([4]; Homo sapiens, MCF7, 24 h)",IC50 ([1]; Homo sapiens),"IC50 ([3]; Mus musculus, MEF)",other results
Fc1ccc(-c2nc3ccccn3c2Nc2ccc(Cl)cc2)c(F)c1 [C00010],10.1 ± 0.7 µM,14.39 ± 0.04 µM,16.31 ± 0.08 µM,–,–,–,–,–
FC(F)(F)c1ccc(-c2nc3ccccn3c2Nc2ccc(Cl)cc2)cc1 [C00011],85.5 ± 18.8 µM,195 ± 15.3 µM,63.9 ± 2.33 µM,> 200 µM,–,–,–,–
Clc1ccc(Nc2c(-c3c[nH]c4ccccc34)nc3ccccn23)cc1 [C00003],18.3 ± 1.22 µM,39.2 ± 1.84 µM,1.84 ± 0.83 µM,20.47 ± 0.1 µM,–,–,–,–
"COc1ccc(-c2nc3ccccn3c2Nc2ccc(Cl)cc2)cc1OCc1ccccc1 [Compound 10, 2-(3-(Benzyloxy)−4-methoxyphenyl)-N-(4-chlorophenyl)imidazo[1,2-a]pyridin-3-amine]",–,–,–,–,–,–,–,Cytotoxicity against MCF-7 (in words) [4]: ineffective; Cytotoxicity against HT-29 (in words) [1]: ineffective; Cytotoxicity against B16F10 (in words) [2]: ineffective
"Clc1ccc(Nc2c(-c3ccsc3)nc3ccccn23)cc1 [Compound 17, N-(4-chlorophenyl)−2-(thiophen-3-yl)imidazo[1,2-a]pyridin-3-amine]",–,–,–,–,–,–,–,Cytotoxicity against MCF-7 (in words) [4]: ineffective; Cytotoxicity against HT-29 (in words) [1]: ineffective; Cytotoxicity against B16F10 (in words) [2]: ineffective
"Clc1ccc(Nc2c(-c3c[nH]c4ccccc34)nc3ccccn23)cc1 [Compound 11, N-(4-chlorophenyl)−2-(1 H-indol-3-yl)imidazo[1,2-a]pyridin-3-amine]",–,–,< 1.84 µM,–,20.47 ± 0.1 µM,18.3 ± 1.22 µM,1.84 ± 0.83 µM,"IC50 ([2]; Mus musculus, B16-F10, 24 h): 39.2 ± 1.84 µM"
COc1ccc(-c2nc3ccccn3c2Nc2ccc(Cl)cc2)cc1OCc1ccccc1 [C00002],> 200 µM,> 200 µM,18.5 ± 0.33 µM,> 200 µM,–,–,–,–
"COc1ccc(-c2nc3ccccn3c2Nc2ccc(Cl)cc2)c(OC)c1OC [Compound 9, N-(4-chlorophenyl)−2-(2,3,4-trimethoxyphenyl)imidazo[1,2-a]pyridin-3-amine]",–,–,–,–,–,–,–,Cytotoxicity against MCF-7 (in words) [4]: ineffective; Cytotoxicity against HT-29 (in words) [1]: ineffective; Cytotoxicity against B16F10 (in words) [2]: ineffective
"COc1cccc(-c2nc3ccccn3c2Nc2ccc(Cl)cc2)c1OC [Compound 15, N-(4-chlorophenyl)−2-(2,3-dimethoxyphenyl)imidazo[1,2-a]pyridin-3-amine]",–,–,–,–,–,–,–,Cytotoxicity against MCF-7 (in words) [4]: ineffective; Cytotoxicity against HT-29 (in words) [1]: ineffective; Cytotoxicity against B16F10 (in words) [2]: ineffective
Clc1ccc(Nc2c(-c3ccc4ccccc4c3)nc3ccccn23)cc1 [C00008],–,> 200 µM,> 200 µM,–,–,–,–,–
"Clc1ccc(Nc2c(-c3ccco3)nc3ccccn23)cc1 [Compound 13, N-(4-chlorophenyl)−2-(furan-2-yl)imidazo[1,2-a]pyridin-3-amine]",> 45 µM,–,–,> 45 µM,66.5 ± 37.9 µM,48.3 ± 0.53 µM,32.93 ± 0.09 µM,–
"Clc1ccc(Nc2c(-c3ccc4ccccc4c3)nc3ccccn23)cc1 [Compound 16, N-(4-chlorophenyl)−2-(naphthalen-2-yl)imidazo[1,2-a]pyridin-3-amine]",–,–,–,–,84 ± 3.37 µM,93.08 ± 0.61 µM,–,Cytotoxicity against B16F10 (in words) [2]: inactive
COc1ccc(-c2nc3ccccn3c2Nc2ccc(Cl)cc2)c(OC)c1OC [C00001],> 200 µM,> 200 µM,> 200 µM,> 200 µM,–,–,–,–
Cc1cccc(-c2nc3ccccn3c2Nc2ccc(Cl)cc2)c1 [C00006],–,–,–,195 ± 19.9 µM,–,–,–,–
"FC(F)(F)c1ccc(-c2nc3ccccn3c2Nc2ccc(Cl)cc2)cc1 [Compound 19, N-(4-chlorophenyl)−2-(4-(trifluoromethyl)phenyl)imidazo[1,2-a]pyridin-3-amine]",–,–,–,–,≥ 200 µM,85.5 ± 18.8 µM,63.9 ± 2.33 µM,"IC50 ([2]; Mus musculus, B16-F10, 24 h): ≥ 200 µM"
"Cc1cccc(-c2nc3ccccn3c2Nc2ccc(Cl)cc2)c1 [Compound 14, N-(4-chlorophenyl)−2-(m-tolyl)imidazo[1,2-a]pyridin-3-amine]",–,–,–,–,–,44.45 ± 0.15 µM,> 200 µM,"IC50 ([2]; Mus musculus, B16-F10, 24 h): 21.8 ± 0.81 µM; Morphological changes, B16F10 [5]: shrinkage and lost their original form; Morphological changes, HT-29 [6]: shrinkage and lost their original form"
"CC(=O)O[C@H]1C(=O)[C@@]2(C)[C@H]([C@H](OC(=O)c3ccccc3)[C@]3(O)C[C@H](OC(=O)[C@H](O)[C@@H](NC(=O)c4ccccc4)c4ccccc4)C(C)=C1C3(C)C)[C@]1(OC(C)=O)CO[C@@H]1C[C@@H]2O [Paclitaxel (Taxol), Paclitaxel, reference compound]",–,–,–,–,0.00834 µM,0.0166 µM,17.2 µM,"IC50 ([2]; Mus musculus, B16-F10, 24 h): 55.7 µM"
COc1cccc(-c2nc3ccccn3c2Nc2ccc(Cl)cc2)c1OC [C00007],> 200 µM,> 200 µM,> 200 µM,> 200 µM,–,–,–,–
Clc1ccc(Nc2c(-c3ccsc3)nc3ccccn23)cc1 [C00009],> 200 µM,> 200 µM,> 200 µM,> 200 µM,–,–,–,–
"Fc1ccc(-c2nc3ccccn3c2Nc2ccc(Cl)cc2)c(F)c1 [Compound 18, N-(4-chlorophenyl)−2-(2,4-difluorophenyl)imidazo[1,2-a]pyridin-3-amine]",< 15 µM,< 15 µM,–,< 15 µM,14.8 ± 0.2 µM,10.1 ± 0.7 µM,16.31 ± 0.08 µM,"IC50 ([2]; Mus musculus, B16-F10, 24 h): 14.39 ± 0.04 µM"
"O=[N+]([O-])c1ccccc1-c1nc2ccccn2c1Nc1ccc(Cl)cc1 [Compound 12, N-(4-chlorophenyl)−2-(2-nitrophenyl)imidazo[1,2-a]pyridin-3-amine]",–,–,–,–,30.9 ± 14.4 µM,4.15 ± 2.93 µM,40.5 ± 4.34 µM,"IC50 ([2]; Mus musculus, B16-F10, 24 h): 64.8 ± 15.8 µM; Morphological changes, B16F10 [5]: shrinkage and lost their original form; Morphological changes, HT-29 [6]: shrinkage and lost their original form; Cytotoxicity against normal cells relative to HT-29 (fold lower) ([3]; MEF IC50 versus HT-29 IC50): tenfold"
Clc1ccc(Nc2c(-c3ccco3)nc3ccccn23)cc1 [C00005],48.3 ± 0.53 µM,197 ± 14.4 µM,32.93 ± 0.09 µM,66.5 ± 37.9 µM,–,–,–,–
